Test results published in paper PMC6615261, “Repurposing Azithromycin and Rifampicin Against Gram-Negative Pathogens by Combination With Peptidomimetics” (Frontiers in Cellular and Infection Microbiology, 2019).
Where two headings read alike, the source gives them in different places.

Assays:
[1] = MTS/PMS cell viability assay; type: cell-based, mouse; settings: mouse, NIH 3T3 fibroblasts, 1 h exposure, read-out: Cytotoxicity NIH 3T3 EC50 ± SD
Method: (§1) NIH 3T3 and HepG2 cells (both from ATCC, Manassas, VA, USA) were cultured in flat-bottomed 96-well MicroWell™ plates (NUNC, Roskilde, Denmark) at seeding densities of ~23,000 and ~22,000 cells/well, respectively, and then cultured for 22–24 h under standard culturing conditions (37°C, 5% CO2, humidified air) to reach 80–90% confluence. NIH 3T3 were cultured in Dulbecco's modified Eagle's medium (DMEM) supplemented with 10% (v/v) newborn-calf serum (NCS) (Gibco, Paisly, UK), while HepG2 were cultured in Eagle's minimum essential medium (EMEM) supplemented with 10% (v/v) fetal bovine serum (FBS, Gibco, Paisly, UK), sodium pyruvate (1 mM), and non-essential amino acids (1%, v/v). Both culturing media were further supplemented with penicillin (100 U/mL), streptomycin (100 μg/mL), and L-glutamine (2 mM).
(§2) Effect on cell viability was determined in NIH 3T3 fibroblasts and HepG2 hepatocytes by using the MTS/PMS assay measuring metabolic activity. Briefly, the adhered cells were washed with 37°C Hanks' balanced salt solution (HBSS from Sigma-Aldrich, St. Louis, MO, USA), containing 10 mM HEPES (AppliChem, Darmstadt, Germany), and adjusted to pH 7.4, and were then exposed for 1 h to 100 μL of test compound(s) dissolved in the appropriate culturing medium without serum for each cell line. After exposure the cells were washed with HBSS containing 10 mM HEPES (pH 7.4) and 100 μL of an MTS/PMS solution, consisting of 240 μg/mL MTS (Promega, Madison, WI, USA) and 2.4 μg/mL PMS (SigmaAldrich, Buchs, Switzerland) in HBSS, was added to the cells, which then were incubated for 1 h at 37°C with horizontal shaking under light protection. Absorbance was measured at 492 nm by using a POLARstar OPTIMA plate reader (BMG Labtech, Offenburg, Germany). The relative viability was calculated according to Equation (1) with absorbance values obtained after incubation of cells with test compound; incubation with SDS (0.2%, w/v in medium) defined 100% cell death (Abspos), while the absorbance of cells incubated with medium defined 0% cell death (Absneg).
(§3) (1) Relative viability(%)=(Abssample-Abspos)/(Absneg-Abspos)×100%
(§4) EC50 values were calculated by using GraphPad Prism 7 (GraphPad Software, La Jolla, CA, USA) via fitting of the relative cell viability to the concentration of the test compound by using Equation (2):
(§5) (2) Relative viability(%)= Top-Bottom/1+10^(LogIC50-Log[peptidomimetic]) ×Hill slope
(§6) With top and bottom representing the mean highest and lowest observed values, respectively. The Hill slope represents a factor for the steepness of the linear part of the curve. In order to prevent erroneous calculation, the top and bottom values were constrained to 100 and 0%, respectively. Data were collected from technical triplicates. The selectivity index was calculated as the average effect on cell viability (EC50 values for HepG2 and NIH 3T3 cells) divided by the MIC.

[2] = tested on: P. aeruginosa ATCC 27853; settings: for Antibiotic MIC in combination (RIF): MIC of rifampicin combined with the labelled peptidomimetic; for Peptidomimetic MIC alone: checkerboard; for Reduction of the MIC of azithromycin: P. aeruginosa, sub-MIC concentrations of peptidomimetic
Method: (§7) The potential synergistic effects in peptidomimetic-antibiotic combinations were assessed by using a two-dimensional checkerboard assay (Garcia, [2010]). Briefly, twofold dilutions of peptide and antibiotic were prepared in MBH II media along the X- and Y-axis, respectively, in 96-well plates. The inoculum was added to the plates, and subsequently these were incubated for 18–20 h. All steps for inoculum preparation and broth microdilution were in accordance with the CLSI guidelines (Clinical and Laboratory Standards Institute, [2013]). The fractional inhibitory concentration index (FICI) was calculated as [MICA(A+B)/MICA(alone)] + [MICB(A+B)/MICB(alone)], where MICA(A+B) represents the MIC of antibiotic (A) in combination with peptidomimetic (B), while MICB(A+B) represents the MIC of peptidomimetic (B) in combination with antibiotic (A). MICA(alone) and MICB(alone) represent the MIC of each compound individually. FICI values of ≤0.5 were interpreted as synergy.

[3] = tested on: E. coli ST131; settings: for Antibiotic MIC in combination (AZM): MIC of azithromycin combined with the labelled peptidomimetic; for Antibiotic MIC in combination (RIF): MIC of rifampicin combined with the labelled peptidomimetic; for Peptidomimetic MIC alone: checkerboard
Method: as §7

[4] = tested on: K. pneumoniae ST258; settings: for Antibiotic MIC in combination (AZM): MIC of azithromycin combined with the labelled peptidomimetic; for Antibiotic MIC in combination (RIF): MIC of rifampicin combined with the labelled peptidomimetic; for Peptidomimetic MIC alone: checkerboard
Method: as §7

[5] = tested on: P. aeruginosa ATCC 27853; assay: MIC by broth microdilution; type: cell-based, Pseudomonas aeruginosa; settings: for MIC P. aeruginosa ATCC 27853: peptidomimetic alone
Method: (§8) Minimal inhibitory concentrations (MICs) of peptidomimetics, antibiotics and their combinations were determined by broth microdilution according to the Clinical Laboratory Standards Institute performance standards (Clinical and Laboratory Standards Institute, [2013]). […] Since rifampicin and azithromycin mainly are used to treat infections with Gram-positive pathogens only CLSI clinical breakpoints were available for such bacteria. […] Potentiation of additional antibiotics by peptidomimetics was determined by using commercial 96-well plates containing varied concentrations of standard antibiotics (COMPAN1F; Trek Diagnostic Systems Inc.). The peptidomimetics were added immediately prior to inoculation with pathogen, and then MICs were determined as above. The MICs of peptidomimetic/antibiotic combinations were determined according to the method above, and the concentration ratios were selected based upon checkerboard results with 2:1 and 1:4 ratio of peptidomimetic with rifampicin or azithromycin, respectively. Minimal bactericidal concentrations (MBCs) were determined by using growth-curve assay plates. MIC plates were prepared as above, and then the plates were incubated at 37°C with continuous shaking. Growth was recorded at 10 min intervals as optical density (OD) at 600 nm during 24 h. At 24 h, for wells without growth, a sample was diluted 10-fold in sterile saline (0.9% sodium chloride) and plated onto MHA, following CLSI guidelines (Clinical and Laboratory Standards Institute, [1999]).

[6] = MTS/PMS cell viability assay; type: cell-based; settings: human, HepG2 hepatocytes, 1 h exposure, read-out: Cytotoxicity HepG2 EC50 ± SD
Method: as §1, §2, §3, §4, §5, §6

[7] = tested on: E. coli ST131; assay: MIC by broth microdilution; type: cell-based, Escherichia coli; settings: for MIC E. coli ST131: peptidomimetic alone
Method: as §8

[8] = tested on: NIH 3T3 and HepG2 cells; assay: Effect on viability of mammalian cells (both cell lines); type: cell-based, mouse and human
Method: as §1, §2, §3, §4, §5
With top and bottom representing the mean highest and lowest observed values, respectively. The Hill slope represents a factor for the steepness of the linear part of the curve. […] The selectivity index was calculated as the average effect on cell viability (EC50 values for HepG2 and NIH 3T3 cells) divided by the MIC.

[9] = tested on: MDR E. coli ST131; assay: Screening of peptidomimetic-antibiotic combinations (growth / growth inhibition); type: cell-based, Escherichia coli; design: key to Growth in combination with RIF / Growth in combination with AZM: Growth (+); growth inhibition (–); settings: for Growth in combination with AZM: peptidomimetic 0.5 μM + azithromycin 1 μg/mL; for Growth in combination with RIF: peptidomimetic 0.5 μM + rifampicin 0.5 μg/mL
Method: as §8

[10] = tested on: K. pneumoniae ST258; assay: MIC by broth microdilution; type: cell-based, Klebsiella pneumoniae; settings: for Selectivity Index (SI) K. pneumoniae ST258: average of EC50 (HepG2, NIH 3T3) divided by MIC; for MIC K. pneumoniae ST258: peptidomimetic alone
Method: as §8

[11] = tested on: K. pneumoniae ST258; assay: Screening of peptidomimetic-antibiotic combinations (growth / growth inhibition); type: cell-based, Klebsiella pneumoniae; design: key to Growth in combination with RIF / Growth in combination with AZM: Growth (+); growth inhibition (–); settings: for Growth in combination with AZM: peptidomimetic 0.5 μM + azithromycin 1 μg/mL; for Growth in combination with RIF: peptidomimetic 0.5 μM + rifampicin 0.5 μg/mL
Method: as §8

[12] = P. aeruginosa ATCC 27853, combined with AZM
[13] = P. aeruginosa ATCC 27853, combined with RIF
[14] = average of EC50 (HepG2, NIH 3T3) divided by MIC
[15] = 0.5 μM peptidomimetic + 0.5 μg/mL rifampicin

Row | Antibiotic MIC in combination (RIF) ([2]; P. aeruginosa ATCC 27853) | Peptidomimetic MIC alone ([2]; P. aeruginosa ATCC 27853) | Peptidomimetic MIC in combination [2, 12] | Peptidomimetic MIC in combination [2, 13] | Reduction of the MIC of azithromycin [2] | Antibiotic MIC in combination (AZM) [3] | Antibiotic MIC in combination (RIF) [3] | Peptidomimetic MIC alone [3] | Peptidomimetic MIC in combination ([3]; combined with AZM) | Peptidomimetic MIC in combination ([3]; combined with RIF) | Antibiotic MIC in combination (AZM) [4] | Antibiotic MIC in combination (RIF) [4] | Peptidomimetic MIC alone [4] | Peptidomimetic MIC in combination ([4]; combined with AZM) | Peptidomimetic MIC in combination ([4]; combined with RIF) | MIC P. aeruginosa ATCC 27853 [5] | MIC E. coli ST131 [7] | SMILES | EC50 at 1 h [1] | EC50 at 1 h [6] | EC50 [8] | also measured
1 | 0.06 µg/mL | 8 µM | 1 µM | 1 µM | 32- to 512 fold | 0.5 µg/mL | 0.5 µg/mL | 2 µM | 0.25 µM | 0.25 µM | 8 µg/mL | 0.06 µg/mL | 8 µM | 0.5 µM | 1 µM | 8 µM | 2 µM | C[C@@H](c1ccccc1)N(CCC(N)=O)C(=O)[C@H](CCCCNC(=N)N)NC(=O)CCN(C(=O)[C@H](CCCCN)NC(=O)CCN(C(=O)[C@H](CCCCNC(=N)N)NC(=O)CCN(C(=O)[C@H](CCCCN)NC(=O)CCN(C(=O)[C@H](CCCCNC(=N)N)NC(=O)CCN(C(=O)[C@H](CCCCN)NC(=O)CNCCN)[C@@H](C)c1ccccc1)[C@@H](C)c1ccccc1)[C@@H](C)c1ccccc1)[C@@H](C)c1ccccc1)[C@@H](C)c1ccccc1 [Peptidomimetic 25, NDab-Lys-βNspe-hArg-βNspe)3-NH2] | 167 ± 5.53 µM | 85 ± 3.06 µM | 80 to 170 µM | Growth in combination with AZM [9]: –; Growth in combination with RIF [9]: –; Selectivity Index (SI) K. pneumoniae ST258 [10]: (16); MIC K. pneumoniae ST258 [10]: 8 µM; Growth in combination with AZM [11]: +; Growth in combination with RIF [11]: +
2 | 0.06 µg/mL | 2 µM | 1 µM | 0.5 µM | 32- to 512 fold | 1 µg/mL | 0.5 µg/mL | 1 µM | 0.25 µM | 0.25 µM | 8 µg/mL | 0.06 µg/mL | 8 µM | 0.5 µM | 0.5 µM | 2 µM | 1 µM | C[C@@H](c1ccccc1)N(CCC(N)=O)C(=O)[C@H](CCCCNC(=N)N)NC(=O)CCN(C(=O)[C@H](CCCCN)NC(=O)CCN(C(=O)[C@H](CCCCNC(=N)N)NC(=O)CCN(C(=O)[C@H](CCCCN)NC(=O)CCN(C(=O)[C@H](CCCCNC(=N)N)NC(=O)CCN(C(=O)[C@H](CCCCN)NC(=O)CNCCCNCCCCNCCCN)[C@@H](C)c1ccccc1)[C@@H](C)c1ccccc1)[C@@H](C)c1ccccc1)[C@@H](C)c1ccccc1)[C@@H](C)c1ccccc1 [Peptidomimetic 26, Spermine-(Lys-βNspe-hArg-βNspe)3-NH2] | 53.2 ± 2.94 µM | 59.6 ± 0.71 µM | 50 to 60 µM | Antibiotic MIC in combination (AZM) ([2]; P. aeruginosa ATCC 27853, MIC of azithromycin combined with the labelled peptidomimetic): 0.5 µg/mL; Antibiotic MIC in combination (CLI) ([4]; MIC of CLI combined with the labelled peptidomimetic): 4 µg/mL; Peptidomimetic MIC in combination ([4]; combined with CLI): 0.5 µM; Selectivity Index (SI) P. aeruginosa ATCC 27853 [5, 14]: (28); Selectivity Index (SI) E. coli ST131 [7, 14]: (56); Screening result with rifampicin [9, 15]: inhibit growth; Growth in combination with AZM [9]: –; Growth in combination with RIF [9]: –; Selectivity Index (SI) K. pneumoniae ST258 [10]: (7); MIC K. pneumoniae ST258 [10]: 8 µM; Screening result with rifampicin [11, 15]: inhibit growth; Growth in combination with AZM [11]: +; Growth in combination with RIF [11]: –
